Measurements taken from US7834217B2, “Method for producing oxidation product of cycloalkane” (Daicel Chemical Industries, Ltd., priority 2006, dated 2010).

Assay: Solubility in water at 25° C.
Type: physicochemical

O=C1c2ccccc2C(=O)N1O [N-hydroxyphthalimide]
solubility in water (25° C.): ≤ 0.01 g/100 g-H2O
